Measured values as given in US20240043943A1, “METHODS AND COMPOSITIONS FOR PROTEASE REPORTER ASSAYS AND MODULATORS” (712 NORTH, INC., priority 2021, published 2024).
Entries after “also recorded” stand apart in the source; their conditions may differ. Counter-ions that a name gives are not always drawn. Like-named read-outs stand apart in the source and are kept apart here. Starred links: 1 amine or outer side, 2 acyl side, 3 side chain; linkers in the order of their positions; H or OH if unused. Positions of bridges follow the written chain, without caps; N, C: chain ends. Non-standard residues stand in square brackets, D forms with d. Residues, ends and D or L forms follow the SMILES beside them. Chains are numbered I, II in the order given. Actinocin(9to1) = Cc1c2oc3c(C)ccc(C(=O)[*:1])c3nc-2c(C(=O)[*:2])c(N)c1=O; NMeV = CN[C@H](C(=O)O)C(C)C; Sar = CNCC(=O)O

Experiments:
[1] = biological target: T1, OMA1 protease (Homo sapiens, UniProt Q96E52); assay: Rep#15 / Luke-S1 OMA1 reporter bioluminescence assay in Hek293T cells; type: cell-based; set-up: The OMA1 enzyme is dormant under physiological cell culture conditions in these cells; endogenous in cells; host or cells: Hek293T cells, transiently or stably (Luke-S1 line, ATCC PTA-127022) expressing reporter #15; conditions: for OMA1 modulating properties: drugs identified with the OMA1 assays (FIG. 17, FIG. 10)
T1 sequence (Q96E52 144-524): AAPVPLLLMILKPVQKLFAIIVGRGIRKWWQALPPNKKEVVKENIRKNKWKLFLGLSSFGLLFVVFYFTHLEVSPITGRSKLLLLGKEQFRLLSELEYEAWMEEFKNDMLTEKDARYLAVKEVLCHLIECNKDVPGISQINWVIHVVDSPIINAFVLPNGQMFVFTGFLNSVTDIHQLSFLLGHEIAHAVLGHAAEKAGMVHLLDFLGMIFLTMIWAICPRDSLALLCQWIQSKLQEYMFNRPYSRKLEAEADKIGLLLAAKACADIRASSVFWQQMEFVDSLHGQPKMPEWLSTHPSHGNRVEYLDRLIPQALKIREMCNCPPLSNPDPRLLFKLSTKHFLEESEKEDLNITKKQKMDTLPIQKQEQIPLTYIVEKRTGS
Description: Example 1 provides a nonlimiting example of generation and use of a reporter of present invention and illustrates its function. To this end, generation and use of reporter gene #01 (SEQ ID NO: 01) and reporter gene #15 (SEQ ID NO: 15) are described and their function compared to each other. The general design of a reporter of present invention is illustrated in FIG. 1A and its working principle in FIG. 1B. A reporter in general, and reporter gene #01 and reporter gene #15 in particular, can be generated as follows. DNA sequences of a reporter may be codon-optimized in silico or by any other way for expression in a suitable host. DNA sequences of reporter genes #01 and #15 were codon-optimized for expression in humans (SEQ ID NO: 02 and SEQ ID NO: 16, respectively). The (optimized) sequences were synthesized and cloned into a pcDNA3.1 expression vector under the control of a CMV promotor (see FIG. 1 for an illustration of such vector). Of course, an expression system and a host should match for best results. The host in this example were Hek293T cells, which were maintained under standard culture conditions in DMEM with 10% Fetal Bovine Serum and 1% Pen/Strep. For an experiment, Hek293T cells were seeded in opaque white tissue-culture treated 96-well plates at 80% confluency and transfected with vectors carrying reporter gene #01 and reporter gene #15 and 24 hours later incubated for 30 minutes at 37° C. in OptiMEM or in OptiMEM with 10 μM CCCP. After 30 minutes, the OptiMEM cell-culture media was replaced with luciferase substrate (furimazine, Promega) diluted 1:100 in OptiMEM, and bioluminescence was measured with a Fluoroskan Ascent FL (Thermo Scientific) using a 517 nm single-pass filter and 200 milliseconds integration time. […] Reporter #01 comprises a large part of OPA1's amino-terminus as mitochondrial targeting sequence, which is cleaved by the mitochondrial processing peptidase upon mitochondrial import (see Example 2). Reporter #15 was initially envisioned as a control for reporter #01. Reporter #15 therefore lacks the first 66 amino acids of reporter #01 believed to be essential for mitochondrial import.
Example 5 illustrates how mitochondrial toxicity can be measured with reporter and assays of present invention. The OMA1-OPA1 pathway basically serves as a “canary-in-the-coalmine” for a mitochondrial deterioration. […] Hek293T cells expressing reporter #01 and #15 were exposed to CCCP, tipranavir and sorafenib (in OptiMEM) for 30 minutes before the medium was replaced with furimazine (1:100), and bioluminescence measured.
The following non-limiting examples illustrate in more details the in vivo assessment of OMA1 protease activity utilizing an artificial luciferase reporter of present invention stably expressed in Hek293T cells.

[2] = test system: OPA1; conditions: literature; cited from earlier work
[3] = biological target: T1, OMA1 protease; assay: Rep#15 assay with phenanthroline preincubation before CCCP (OMA1 inhibitor control); type: cell-based; set-up: The OMA1 enzyme is dormant under physiological cell culture conditions in these cells; endogenous in cells; host or cells: Hek293T cells, transiently or stably (Luke-S1 line, ATCC PTA-127022) expressing reporter #15; conditions: 500 μM phenanthroline 1 hour, then 10 μM CCCP 30 minutes
Procedure: Example 2 refers to FIG. 4 and illustrates hydrolysis of reporter #01 and reporter #15. For this example, transfected cells were selected by puromycin. Reporter cells were exposed for 30 minutes to 10 μM CCCP before being harvested in RIPA buffer and subjected to 12% SDS-PAGE followed by Western-blotting. […] Full-length reporter #01 has a predicted size of 39.6 kDa but was not detected in Western blots. […] At the same time, reporter #15 is not processed upon import, but migrated at its expected size of 31.9 kDa. (Example 7 establishes mitochondrial import by showing co-migration of reporter #15 with OPA1 and OMA1 in mitochondria-enriched fractions.) Reporter #15 appears to be more abundant and stable, which may explain its better performance. […] This provides additional evidence that reporter #15 is indeed localized in mitochondria where it is recognized and hydrolyzed by OMA1. […] Therefore, phenanthroline was used as a positive control in the reporter assay. If reporter #15 indeed is cleaved by OMA1, then phenanthroline should prevent this at least to a certain extend by inhibiting OMA1 and accordingly preserving the signal. Hek293T cells were transfected with reporter gene #15 as described in the preceding example. […] After 30 minutes, the medium was replaced with furimazine (1:100 in OptiMEM), and bioluminescence measured as described in Example 1.

[4] = biological target: T1, OMA1 protease; conditions: literature; cited from earlier work
[5] = biological target: T1, OMA1 protease; assay: Rep#01 OMA1 reporter bioluminescence assay in Hek293T cells; type: cell-based; set-up: The OMA1 enzyme is dormant under physiological cell culture conditions in these cells; endogenous in cells; host or cells: Hek293T cells, transiently or stably (Luke-S1 line, ATCC PTA-127022) expressing reporter #15; conditions: 30 minutes exposure, CCCP 10 μM
Description: Example 1 provides a nonlimiting example of generation and use of a reporter of present invention and illustrates its function. To this end, generation and use of reporter gene #01 (SEQ ID NO: 01) and reporter gene #15 (SEQ ID NO: 15) are described and their function compared to each other. The general design of a reporter of present invention is illustrated in FIG. 1A and its working principle in FIG. 1B. A reporter in general, and reporter gene #01 and reporter gene #15 in particular, can be generated as follows. DNA sequences of a reporter may be codon-optimized in silico or by any other way for expression in a suitable host. DNA sequences of reporter genes #01 and #15 were codon-optimized for expression in humans (SEQ ID NO: 02 and SEQ ID NO: 16, respectively). The (optimized) sequences were synthesized and cloned into a pcDNA3.1 expression vector under the control of a CMV promotor (see FIG. 1 for an illustration of such vector). Of course, an expression system and a host should match for best results. The host in this example were Hek293T cells, which were maintained under standard culture conditions in DMEM with 10% Fetal Bovine Serum and 1% Pen/Strep. For an experiment, Hek293T cells were seeded in opaque white tissue-culture treated 96-well plates at 80% confluency and transfected with vectors carrying reporter gene #01 and reporter gene #15 and 24 hours later incubated for 30 minutes at 37° C. in OptiMEM or in OptiMEM with 10 μM CCCP. After 30 minutes, the OptiMEM cell-culture media was replaced with luciferase substrate (furimazine, Promega) diluted 1:100 in OptiMEM, and bioluminescence was measured with a Fluoroskan Ascent FL (Thermo Scientific) using a 517 nm single-pass filter and 200 milliseconds integration time. […]
Example 5 illustrates how mitochondrial toxicity can be measured with reporter and assays of present invention. […] Hek293T cells expressing reporter #01 and #15 were exposed to CCCP, tipranavir and sorafenib (in OptiMEM) for 30 minutes before the medium was replaced with furimazine (1:100), and bioluminescence measured.

[6] = test system: mitochondria; conditions: FDA labels, cited from earlier work

Compound | OMA1 modulating properties [1] | further results
Cc1cc(Nc2ncc(Cl)c(Nc3ccccc3S(=O)(=O)C(C)C)n2)c(OC(C)C)cc1C1CCNCC1 [Ceritinib] | OMA1 modulating properties | –
Cc1c2oc3c(C)ccc(C(=O)N[C@@H]4C(=O)N[C@H](C(C)C)C(=O)N5CCC[C@H]5C(=O)N(C)CC(=O)N(C)[C@@H](C(C)C)C(=O)O[C@@H]4C)c3nc-2c(C(=O)N[C@@H]2C(=O)N[C@H](C(C)C)C(=O)N3CCC[C@H]3C(=O)N(C)CC(=O)N(C)[C@@H](C(C)C)C(=O)O[C@@H]2C)c(N)c1=O [Dactinomycin] (I: T[dV]P[Sar][NMeV] / II: T[dV]P[Sar][NMeV]; ester I:1-I:C, II:1-II:C; linker I:N-II:N via Actinocin(9to1)) | OMA1 modulating properties | –
COc1cccc2c1C(=O)c1c(O)c3c(c(O)c1C2=O)C[C@@](O)(C(C)=O)C[C@@H]3O[C@H]1C[C@H](N)[C@H](O)[C@H](C)O1 [Daunorubicin hydrochloride] | OMA1 modulating properties | –
COc1cccc2c1C(=O)c1c(O)c3c(c(O)c1C2=O)C[C@@](O)(C(=O)CO)C[C@@H]3O[C@H]1C[C@H](N)[C@H](O)[C@H](C)O1 [Doxorubicin hydrochloride] | OMA1 modulating properties | –
CC(C)(O)CNc1nc(Nc2ccnc(C(F)(F)F)c2)nc(-c2cccc(C(F)(F)F)n2)n1 [Enasidenib] | OMA1 modulating properties | –
CN1CCN(c2ccc(C(=O)Nc3n[nH]c4ccc(Cc5cc(F)cc(F)c5)cc34)c(NC3CCOCC3)c2)CC1 [Entrectinib] | OMA1 modulating properties | –
CC(=O)[C@]1(O)Cc2c(O)c3c(c(O)c2[C@@H](O[C@H]2C[C@H](N)[C@H](O)[C@H](C)O2)C1)C(=O)c1ccccc1C3=O [Idarubicin hydrochloride] | OMA1 modulating properties | –
Cc1ccc(NC(=O)c2ccc(CN3CCN(C)CC3)cc2)cc1Nc1nccc(-c2cccnc2)n1 [Imatinib] | OMA1 modulating properties | –
Clc1ccc(C(c2ccccc2Cl)C(Cl)Cl)cc1 (stereo not drawn) [Mitotane] | OMA1 modulating properties | –
C=CC(=O)Nc1cc(Nc2nccc(-c3cn(C)c4ccccc34)n2)c(OC)cc1N(C)CCN(C)C [Osimertinib] | OMA1 modulating properties | –
FC(F)(F)c1ccc(CNc2ccc(Cc3c[nH]c4ncc(Cl)cc34)cn2)cn1 [Pexidartinib] | OMA1 modulating properties | –
O=C(c1ccc(OCCN2CCCCC2)cc1)c1c(-c2ccc(O)cc2)sc2cc(O)ccc12 [Raloxifene] | OMA1 modulating properties | –
CNC(=O)c1cc(Oc2ccc(NC(=O)Nc3ccc(Cl)c(C(F)(F)F)c3)c(F)c2)ccn1 [Regorafenib] | OMA1 modulating properties | –
CN(C)C(=O)c1cc2cnc(Nc3ccc(N4CCNCC4)cn3)nc2n1C1CCCC1 [Ribociclib] | OMA1 modulating properties | –
O=C(/C=C\n1cnc(-c2cc(C(F)(F)F)cc(C(F)(F)F)c2)n1)NNc1cnccn1 [Selinexor] | OMA1 modulating properties | –
CC/C(=C(\c1ccccc1)c1ccc(OCCN(C)C)cc1)c1ccccc1 [Tamoxifen citrate] | OMA1 modulating properties | –
Cc1cc(Nc2ncnc3ccc(NC4=NC(C)(C)CO4)cc23)ccc1Oc1ccn2ncnc2c1 [Tucatinib] | OMA1 modulating properties | –
CCCCC(=O)OCC(=O)[C@]1(O)Cc2c(O)c3c(c(O)c2[C@@H](O[C@H]2C[C@H](NC(=O)C(F)(F)F)[C@H](O)[C@H](C)O2)C1)C(=O)c1c(OC)cccc1C3=O [Valrubicin] | OMA1 modulating properties | –
N.N.[Cl][Pt][Cl] [cisplatin] | – | OPA1 cleavage [2]: can promote OPA1 cleavage
c1cnc2c(c1)ccc1cccnc12 [phenanthroline] | – | bioluminescence signal of reporter #15 after CCCP with inhibitor pretreatment [3]: prevented reporter #15 deactivation; also recorded: largely preserved; effect on OMA1 protease [4]: can inhibit OMA1 protease in vitro
CNC(=O)c1cc(Oc2ccc(NC(=O)Nc3ccc(Cl)c(C(F)(F)F)c3)cc2)ccn1 [sorafenib, Sorafenib] | OMA1 modulating properties | bioluminescence signal of reporter #15 ([1]; Hek293T, 30 minutes exposure, CCCP 10 μM): significantly reduced signal; also recorded: significantly reduced bioluminescence; bioluminescence signal of reporter #01 [5]: significantly reduced bioluminescence; bioluminescence signal of reporter #01 ([5]; listed as Sorafenib): comparable effects; OPA1 cleavage [2]: can promote OPA1 cleavage; mitochondrial toxicity [6]: exhibit mitochondrial toxicity
CCC[C@@]1(CCc2ccccc2)CC(O)=C([C@H](CC)c2cccc(NS(=O)(=O)c3ccc(C(F)(F)F)cn3)c2)C(=O)O1 [tipranavir] | – | mitochondrial toxicity [6]: exhibit mitochondrial toxicity; mitochondrial toxicity ([6]; listed as Tipranavir): cause mitochondrial toxicity
Dabrafenib mesylate | OMA1 modulating properties | –
